According to article PMC12491715 (Acta Pharmaceutica Sinica. B, 2025):

System: BALB/c mice
Assay: Acute in vivo toxicity
Text: All mice used were 9–15 weeks old wild-type BALB/c mice bred in the Laboratory of Animal Genomics at the Faculty of Veterinary Medicine, University of Ljubljana. For intravenous administration, 4 males and one female were additionally purchased from Envigo RMS Holding Corp. Mice were conventionally bred in open polycarbonate cages (Tecniplast, Buguggiate, Italy) and provided with wood chip bedding (Lignocel®, Rettenmaier and Sons, Germany). Mice were kept under standard conditions, i.e., a 12:12 dark–light cycle (LED, CCT 3000 K, ≤ 25 lux above the cage), at temperature 21–24 °C, and 50%–60% humidity. They were fed irradiated rodent diet with minimal levels of phytoestrogens (Teklad global 16% protein rodent diet®, BN 2916, Envigo, Udine, Italy) and had access to drinkable tap water ad libitum. The in vivo study was evaluated by the National Ethics Committee for Animal Experiments and approved by the Veterinary Administration of the Republic of Slovenia; license number document no. U34401-10/2021/8, U34401-10/2021/13, and U34401-10/2021/1.
According to the OECD guidelines for acute toxicity testing, compound 8 was initially tested at 10 mg/kg dosage (10-fold the intended therapeutic dose (1 mg/kg)) in 3 female mice and repeated on 3 additional animals. […] After this fasting period, the animals were weighed and compound 8 was administered by oral gavage at 200 μL/20 g body weight using flexible plastic feeding tubes (20G × 30 mm, Instech Laboratories, USA). After administration, the animals were not fed for an additional hour. The mice were then observed regularly for the first 24 h, with particular attention paid to the first 4 h, and then daily for a total of 14 days, with attention paid to the changes in respiratory rate, heart rate, skin and fur, eyes and mucous membranes, behavioural patterns, and especially to the acute CNS toxicity symptoms (tremors, twitching, salivation, diarrhoea, lethargy, sleep, coma). At the end of the 14-day observation period, all experimental animals were euthanized with CO2 and cervical dislocation.

CCN(CC)C(=O)n1cnc(C2(CC)Cc3ccccc3C2)c1 [Compound 8, N,N-Diethyl-4-(2-ethylindan-2-yl)-1H-imidazole-1-carboxamide]
effects in preliminary safety testing (1 mg/kg p.o., mice): no effects were observed
survival (10 mg/kg p.o., 14-day observation): All animals survived
acute cholinergic side effects (salivation, tremors) (10 mg/kg p.o., mice): No acute cholinergic side effects
effects in preliminary safety testing (10 mg/kg p.o., mice): some adrenergic symptoms
onset of symptoms after administration (10 mg/kg p.o., mice): 15 to 30 min
time after which all effects subsided (10 mg/kg p.o., mice): 4 to 5 h
